Data published in patent US20250145715A1, “B7-H3 TARGETING FUSION PROTEINS AND METHODS OF USE THEREOF” (GT Biopharma, Inc., priority 2021, published 2025).

Legend:
[1] = system: H929 myeloma cells with MDSC; assay: Myeloma cytotoxicity assay with added MDSC, live cell imaging; type: cell-based, human; details: B7-H3 TriKE and NK cells, 48 hours live cell imaging
Procedure: FIGS. 10A-10D illustrate the effect B7-H3-TriKE on MDSC developed from CD33+ myeloid cells from healthy donors, when incubated with myeloma cells at 1:100 ratio. FIG. 10A is a graph showing MDSC (CD14+CD11b+) expression of B7-H3. FIG. 10B is a graph showing cell survival as measured by flow cytometry. FIG. 10C is a plot of live, CD14+ cells FIG. 10D is a graph illustrating H929 growth as measured over 48 hours by live cell imaging.
MDSC were developed from CD33+ myeloid cells from healthy donors using IL-6 and GM-CSF or by incubating them with myeloma cells at 1:100 ratio for seven days.

[2] = system: MA-148 ovarian cancer cells; assay: NK cell CD107a / IFNγ flow cytometry against MA-148; type: cell-based, human; details: vs controls
Procedure: FIG. 29A is a graph illustrating pooled proportion of NK cells from healthy donors expressing CD107a+ (degranulation) against OVCAR8 and MA148 targets. FIG. 29B is a graph illustrating pooled proportion of NK cells from healthy donors expressing IFNγ cytokine production against OVCAR8 and MA148 targets.
Healthy donor or ovarian cancer PBMC cells were incubated with ovarian tumor targets at 2:1 E:T ratio for 4 hrs with 30 nM TriKE or control condition. FIG. 30A is a graph illustrating pooled proportion of NK cells from healthy donors expressing CD107a+ (degranulation) against OVCAR8 targets (N=8). […] FIG. 30I is a graph illustrating that tumor killing was evaluated using IncuCyte imaging assay. […] The percentage of Live (Nuclight Red+Caspase 3/7−) tumor cells was quantified over a 48-h period and normalized to tumor alone. Readings were obtained every 15 min (representative of four separate experiments). * p<0.05, ** p<0.01, *** p<0.001, and **** p<0.0001.
ADCC was measured in a flow cytometry assay by evaluating degranulation via CD107a (lysosomal-associated membrane protein LAMP-1) and intracellular IFNγ production. […] Samples were washed and evaluated in an LSRII flow cytometer (BD Biosciences, San Jose, CA, USA).
The ability of cam1615B7-H3 TriKE to mediate NK cell activity against ovarian cancer cells was evaluated. […]

“B7-H3 TriKE: camelid nanobodies targeting CD16 and B7-H3 joined by IL-15 and two linkers; sequence table equates the name with cam1615B7-H3” was tested, and the “MDSC-enhanced myeloma cell growth” value [1] was “overcome”.

“cam1615B7-H3: second-generation TriKE: humanized camelid anti-CD16 VHH, human wild-type IL-15, anti-B7-H3 mAb 376.96 scFv; SEQ ID NO:1” was tested, and the “NK cell activity against MA-148” value ([2]; normal donor NK cells) was “robust activity” and the “NK cell degranulation against MA-148” value ([2]; ovarian-cancer-derived ascites samples) was “significantly enhanced NK cell degranulation”.
